Laboratory results: patent US20060069132A1, “Azolecarboxamide herbicides” (priority 2004, published 2006)

Tests used:
[1] = system: barnyardgrass; test: Test B pre-/postemergence herbicide test; type: in vivo, Echinochloa crus-galli; details: for Barnyardgrass plant response rating: postemergence
Summary of the method: (§1)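 Plants compared with untreated controls 13–15 days post-treatment and given a visual 0–100 injury score. Applications: preemergence to seeds; postemergence at 1- to 4-leaf (2–18 cm); paddy species flooded, 2-leaf stage. Vehicle non-phytotoxic, surfactant included.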

[2] = system: rice; test: Test B pre-/postemergence herbicide test; type: in vivo, Oryza sativa; details: preemergence
Source text: Seeds selected from barnyardgrass (Echinochloa crus-galli (L.) Beauv.), Surinam grass (Urochloa decumbens (Staph) R. D. Webster, previously named Brachiaria decumbens Stapf), cocklebur (Xanthium strumarium L.), corn (Zea mays L.), large crabgrass (Digitaria sanguinalis (L.) Scop.), giant foxtail (Setaria faberi Herim.), lambsquarters (Chenopodium album L.), morningglory (Ipomoea coccinea L.), pigweed (Amaranthus retroflexus L.), rice (Oryza sativa L.) and velvetleaf (Abutilon theophrasti Medik.) were planted and treated preemergence with test chemicals formulated in a non-phytotoxic solvent mixture which included a surfactant.
At the same time, plants selected from these crop and weed species and also blackgrass (Alopecurus myosuroides Huds.), wheat (Triticum aestivum L.) and wild oat (Avena fatua L.) were treated with postemergence applications of test chemicals formulated in the same manner. Plants ranged in height from 2 to 18 cm (1- to 4-leaf stage) for postemergence treatments. Plant species in the flooded paddy test consisted of rice (Oryza sativa L.), small flower umbrella sedge (Cyperus difformis L.), ducksalad (Heteranthera limosa (Sw.) Willd.) and barnyardgrass (Echinochloa crus-galli (L.) Beauv.) grown to the 2-leaf stage for testing. Treated plants and controls were maintained in a greenhouse for 13 to 15 days, after which time all species were compared to controls and visually evaluated. Plant response ratings, summarized in Table B, are based on a scale of 0 to 100 where 0 is no effect and 100 is complete control. A dash (-) response means no test result.

[3] = system: velvetleaf; test: Test B pre-/postemergence herbicide test; type: in vivo, Abutilon theophrasti; details: for Velvetleaf plant response rating: postemergence
Summary of the method: (§2)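 Seeds were planted and treated preemergence with compounds formulated in a non-phytotoxic solvent mixture containing surfactant, while plants at the 1- to 4-leaf stage (2 to 18 cm) received postemergence sprays. Flooded paddy plants were grown to the 2-leaf stage. After 13 to 15 days in a greenhouse, injury was visually rated 0–100 against untreated controls.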

[4] = system: morningglory; test: Test B pre-/postemergence herbicide test; type: in vivo, Ipomoea coccinea; details: for Morningglory plant response rating: postemergence
Summary of the method: as §1

[5] = system: barnyardgrass; test: Test B flooded paddy test; type: in vivo, Echinochloa crus-galli; details: 1000 g ai/ha, visual rating, scale 0 to 100 (0 no effect, 100 complete control), 13 to 15 days
Summary of the method: (§3)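 Formulated test chemicals went onto postemergence plants measuring 2 to 18 cm, at one to four leaves. For the paddy assay, species had reached two leaves. Scoring took place 13–15 days later by eye, relative to untreated plants, using 0 for no effect up to 100 for full control.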

[6] = system: lambsquarters; test: Test B pre-/postemergence herbicide test; type: in vivo, Chenopodium album; details: for Lambsquarters plant response rating: postemergence
Summary of the method: as §2

[7] = system: wheat; test: Test B postemergence herbicide test; type: in vivo, Triticum aestivum; parameters: key to Wheat plant response rating: 0 = no effect, 100 = complete control; details: scale 0 (no effect) to 100 (complete control); for Wheat plant response rating: postemergence, visual rating
Summary of the method: (§4)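 Visual ratings, 0 (no effect) to 100 (complete control), made versus controls after 13–15 d greenhouse. Paddy plants treated at 2-leaf stage; postemergence plants at 1- to 4-leaf stage, 2–18 cm tall.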

[8] = system: Surinam grass; test: Test B pre-/postemergence herbicide test; type: in vivo, Urochloa decumbens; details: for Surinam Grass plant response rating: postemergence
Summary of the method: as §2

[9] = system: rice; test: Test B flooded paddy test; type: in vivo, Oryza sativa; details: 1000 g ai/ha, visual rating, scale 0 to 100 (0 no effect, 100 complete control), 13 to 15 days
Summary of the method: as §4

[10] = system: large crabgrass; test: Test B pre-/postemergence herbicide test; type: in vivo, Digitaria sanguinalis; details: for Crabgrass, Large plant response rating: postemergence
Summary of the method: as §2

[11] = system: giant foxtail; test: Test B pre-/postemergence herbicide test; type: in vivo, Setaria faberi; details: for Foxtail, Giant plant response rating: postemergence
Summary of the method: as §2

[12] = system: blackgrass; test: Test B postemergence herbicide test; type: in vivo, Alopecurus myosuroides; details: scale 0 (no effect) to 100 (complete control); for Blackgrass plant response rating: postemergence, visual rating
Summary of the method: as §3

[13] = system: wild oat; test: Test B postemergence herbicide test; type: in vivo, Avena fatua; details: scale 0 (no effect) to 100 (complete control); for Oat, Wild plant response rating: postemergence, visual rating
Summary of the method: as §4

[14] = system: ducksalad; test: Test B flooded paddy test; type: in vivo, Heteranthera limosa; details: 1000 g ai/ha, visual rating, scale 0 to 100 (0 no effect, 100 complete control), 13 to 15 days
Summary of the method: as §3

[15] = system: pigweed; test: Test B pre-/postemergence herbicide test; type: in vivo, Amaranthus retroflexus; details: for Pigweed plant response rating: postemergence
Summary of the method: as §2

[16] = system: small flower umbrella sedge; test: Test B flooded paddy test; type: in vivo, Cyperus difformis; details: 1000 g ai/ha, visual rating, scale 0 to 100 (0 no effect, 100 complete control), 13 to 15 days
Summary of the method: as §3

[17] = system: cocklebur; test: Test B pre-/postemergence herbicide test; type: in vivo, Xanthium strumarium; details: for Cocklebur plant response rating: postemergence
Summary of the method: as §1

[18] = system: corn; test: Test B pre-/postemergence herbicide test; type: in vivo, Zea mays; details: for Corn plant response rating: postemergence
Summary of the method: as §2

[19] = 500 g ai/ha, visual rating 0-100, 0 no effect, 100 complete control, preemergence
[20] = Postemergence, 500 g ai/ha, visual rating after 13 to 15 days, scale 0 (no effect) to 100 (complete control)
[21] = 125 g ai/ha, visual rating, scale 0 (no effect) to 100 (complete control)
[22] = preemergence, 125 g ai/ha, 0 to 100 scale, 0 is no effect, 100 is complete control
[23] = Postemergence, 500 g ai/ha, visual rating after 13 to 15 days
[24] = 125 g ai/ha, 0 = no effect, 100 = complete control, preemergence
[25] = 500 g ai/ha, visual rating, 0 = no effect, 100 = complete control, preemergence
[26] = 500 g ai/ha, visual rating, scale 0 (no effect) to 100 (complete control)

SMILES: CCOC(=O)c1cc(NC(=O)c2cc(C(C)(C)C)nn2CC)ccc1C [Compound 99]
- Plant response rating, Barnyardgrass [1, 19]: 30
- Plant response rating, Barnyardgrass [1, 20]: 0
- Barnyardgrass plant response rating [1, 21]: 0
- Plant response rating, Barnyardgrass [1, 22]: 0
- Plant response rating, Rice ([2]; 500 g ai/ha, visual rating 0-100, 0 no effect, 100 complete control): 0
- Plant response rating, Rice ([2]; 125 g ai/ha, 0 to 100 scale, 0 is no effect, 100 is complete control): 0
- Plant response rating, Velvetleaf [3, 19]: 20
- Plant response rating, Velvetleaf [3, 20]: 40
- Velvetleaf plant response rating [3, 21]: 20
- Plant response rating, Velvetleaf [3, 22]: 10
- Plant response rating, Morningglory [4, 19]: 0
- Plant response rating, Morningglory [4, 20]: 20
- Morningglory plant response rating [4, 21]: 0
- Plant response rating, Morningglory [4, 22]: 0
- Barnyardgrass plant response rating [5]: 0
- Plant response rating, Lambsquarters [6, 19]: 20
- Plant response rating, Lambsquarters [6, 20]: 90
- Lambsquarters plant response rating [6, 21]: 70
- Plant response rating, Lambsquarters [6, 22]: 0
- Plant response rating, Wheat [7, 23]: 20
- Wheat plant response rating ([7]; 125 g ai/ha): 20
- Plant response rating, Surinam Grass [8, 19]: 30
- Plant response rating, Surinam Grass [8, 20]: 10
- Surinam Grass plant response rating [8, 21]: 10
- Plant response rating, Surinam Grass [8, 22]: 10
- Rice plant response rating [9]: 0
- Plant response rating, Crabgrass, Large [10, 19]: 70
- Plant response rating, Crabgrass, Large [10, 20]: 10
- Crabgrass, Large plant response rating [10, 21]: 10
- Plant response rating, Crabgrass, Large [10, 22]: 20
- Plant response rating, Foxtail, Giant [11, 19]: 20
- Plant response rating, Foxtail, Giant [11, 20]: 30
- Foxtail, Giant plant response rating [11, 21]: 10
- Plant response rating, Foxtail, Giant [11, 22]: 10
- Plant response rating, Blackgrass [12, 23]: 40
- Blackgrass plant response rating ([12]; 125 g ai/ha): 20
- Plant response rating, Oat, Wild [13, 23]: 40
- Oat, Wild plant response rating ([13]; 125 g ai/ha): 20
- Ducksalad plant response rating [14]: 0
- Plant response rating, Pigweed [15, 20]: 70
- Pigweed plant response rating [15, 21]: 20
- Plant response rating, Pigweed [15, 22]: 0
- Sedge, Umbrella plant response rating [16]: 40
- Plant response rating, Cocklebur [17, 19]: 0
- Plant response rating, Cocklebur [17, 20]: 30
- Cocklebur plant response rating [17, 21]: 0
- Plant response rating, Cocklebur [17, 22]: 0
- Plant response rating, Corn [18, 19]: 0
- Plant response rating, Corn [18, 20]: 20
- Corn plant response rating [18, 21]: 10
- Plant response rating, Corn [18, 22]: 0

SMILES: CCc1nc(C(C)(C)C)sc1C(=O)Nc1cc(C(=O)N(CC)CC)ccc1F [Compound 230]
- Barnyardgrass plant response rating (0 to 100 scale) [1, 24]: 10
- Plant response rating, Barnyardgrass [1, 25]: 50
- Barnyardgrass plant response rating [1, 21]: 0
- Barnyardgrass plant response rating [1, 26]: 20
- Rice plant response rating (0 to 100 scale) ([2]; 125 g ai/ha, 0 = no effect, 100 = complete control): 0
- Plant response rating, Rice ([2]; 500 g ai/ha, visual rating, 0 = no effect, 100 = complete control): 0
- Velvetleaf plant response rating (0 to 100 scale) [3, 24]: 10
- Plant response rating, Velvetleaf [3, 25]: 30
- Velvetleaf plant response rating [3, 21]: 20
- Velvetleaf plant response rating [3, 26]: 30
- Morningglory plant response rating (0 to 100 scale) [4, 24]: 10
- Plant response rating, Morningglory [4, 25]: 10
- Morningglory plant response rating [4, 21]: 20
- Morningglory plant response rating [4, 26]: 70
- Barnyardgrass plant response rating [5]: 50
- Lambsquarters plant response rating (0 to 100 scale) [6, 24]: 20
- Plant response rating, Lambsquarters [6, 25]: 90
- Lambsquarters plant response rating [6, 21]: 50
- Lambsquarters plant response rating [6, 26]: 60
- Wheat plant response rating ([7]; 125 g ai/ha): 10
- Wheat plant response rating ([7]; 500 g ai/ha): 20
- Surinam Grass plant response rating (0 to 100 scale) [8, 24]: 0
- Plant response rating, Surinam Grass [8, 25]: 10
- Surinam Grass plant response rating [8, 21]: 10
- Surinam Grass plant response rating [8, 26]: 10
- Rice plant response rating [9]: 60
- Crabgrass, Large plant response rating (0 to 100 scale) [10, 24]: 20
- Plant response rating, Crabgrass, Large [10, 25]: 70
- Crabgrass, Large plant response rating [10, 21]: 10
- Crabgrass, Large plant response rating [10, 26]: 20
- Foxtail, Giant plant response rating (0 to 100 scale) [11, 24]: 10
- Plant response rating, Foxtail, Giant [11, 25]: 80
- Foxtail, Giant plant response rating [11, 21]: 10
- Foxtail, Giant plant response rating [11, 26]: 20
- Blackgrass plant response rating ([12]; 125 g ai/ha): 30
- Blackgrass plant response rating ([12]; 500 g ai/ha): 30
- Oat, Wild plant response rating ([13]; 125 g ai/ha): 20
- Oat, Wild plant response rating ([13]; 500 g ai/ha): 40
- Ducksalad plant response rating [14]: 60
- Pigweed plant response rating (0 to 100 scale) [15, 24]: 40
- Plant response rating, Pigweed [15, 25]: 80
- Pigweed plant response rating [15, 21]: 40
- Pigweed plant response rating [15, 26]: 60
- Cocklebur plant response rating (0 to 100 scale) [17, 24]: 0
- Plant response rating, Cocklebur [17, 25]: 0
- Cocklebur plant response rating [17, 21]: 0
- Cocklebur plant response rating [17, 26]: 10
- Corn plant response rating (0 to 100 scale) [18, 24]: 0
- Plant response rating, Corn [18, 25]: 10
- Corn plant response rating [18, 21]: 10
- Corn plant response rating [18, 26]: 20
